Measurements reported in ChEMBL document CHEMBL4359925, “Rational discovery of a highly novel and selective mTOR inhibitor” (Bioorg Med Chem Lett, 2019).
pIC50: −log10 of the molar value.

What was measured:
[1] = biological target: Serine/threonine-protein kinase mTOR (Homo sapiens, UniProt P42345); assay: Inhibition of human mTOR measured after 30 mins in presence of ATP by Lanthascreen TR-FRET assay
[2] = biological target: Phosphatidylinositol 4,5-bisphosphate 3-kinase catalytic subunit alpha isoform (Homo sapiens, UniProt P42336); assay: Inhibition of PI3K alpha (unknown origin)
Chain of Phosphatidylinositol 4,5-bisphosphate 3-kinase catalytic subunit alpha isoform (P42336 whole entry, canonical isoform): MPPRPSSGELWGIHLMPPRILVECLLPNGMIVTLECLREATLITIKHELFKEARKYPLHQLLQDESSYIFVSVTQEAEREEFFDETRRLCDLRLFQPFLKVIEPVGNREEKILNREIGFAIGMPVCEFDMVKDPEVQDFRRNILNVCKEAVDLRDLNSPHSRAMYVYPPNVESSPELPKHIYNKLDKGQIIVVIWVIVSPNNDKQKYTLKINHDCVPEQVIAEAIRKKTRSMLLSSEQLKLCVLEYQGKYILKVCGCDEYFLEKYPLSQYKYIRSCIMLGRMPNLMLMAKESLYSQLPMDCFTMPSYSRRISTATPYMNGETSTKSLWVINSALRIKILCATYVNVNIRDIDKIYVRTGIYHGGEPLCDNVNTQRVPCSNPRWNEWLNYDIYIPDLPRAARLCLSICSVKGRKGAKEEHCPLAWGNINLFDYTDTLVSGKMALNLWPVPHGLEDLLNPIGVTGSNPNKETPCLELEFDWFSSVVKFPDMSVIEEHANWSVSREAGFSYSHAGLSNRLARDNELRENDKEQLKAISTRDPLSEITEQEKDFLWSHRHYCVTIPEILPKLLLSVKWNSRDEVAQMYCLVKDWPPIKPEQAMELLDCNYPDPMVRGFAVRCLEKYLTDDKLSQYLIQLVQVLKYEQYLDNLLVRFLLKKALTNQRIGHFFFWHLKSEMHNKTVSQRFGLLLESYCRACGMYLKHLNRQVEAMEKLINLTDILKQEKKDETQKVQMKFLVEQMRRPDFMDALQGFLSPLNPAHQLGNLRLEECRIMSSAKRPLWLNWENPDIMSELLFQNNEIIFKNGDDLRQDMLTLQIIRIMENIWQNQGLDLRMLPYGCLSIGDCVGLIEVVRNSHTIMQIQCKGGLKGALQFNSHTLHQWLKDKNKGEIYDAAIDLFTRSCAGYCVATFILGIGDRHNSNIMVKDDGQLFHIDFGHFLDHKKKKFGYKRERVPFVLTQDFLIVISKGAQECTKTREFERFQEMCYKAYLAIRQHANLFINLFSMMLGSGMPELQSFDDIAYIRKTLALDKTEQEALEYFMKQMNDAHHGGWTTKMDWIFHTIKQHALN

Row | pIC50 [1] | pIC50 [2] | Compound
1 | > 7.50 |  | O=C(Nc1ccc(-c2nc(N3CCOCC3)c3c(n2)C2(CC2)OC3)cc1)NC1CC1
2 | 6.30 | 7.30 | CNC(=O)Nc1ccc(-c2ncc3c(n2)N2CCOCC2CO3)cc1 (stereo not drawn)
